Data as given in patent publication US5571822A, “Antitumor compounds” (The University of North Carolina at Chapel Hill, priority 1994, dated 1996).
Like-named read-outs stand apart in the source and are kept apart here.

Legend:
tubulin [1] = assay: inhibition of tubulin polymerization (ITP); type: biochemical, bovine
Method: Electrophoretically homogeneous bovine brain tubulin was purified as described previously (Hamel, et al., 1984). […] Dihydrocombretastatin A-4 was prepared as described previously (Getahun et al., 1992).
The tubulin polymerization assay was performed as described previously (Li et al., 1994). In brief, tubulin at 1.2 mg/mL ([…]) was preincubated for 15 min at 26° C. in a 0.24 mL volume in 0.8M monosodium glutamate (pH 6.6 with NaOH in a 2M stock solution) with varying drug concentrations. The drug stock solutions were in dimethyl sulfoxide, and the final solvent concentration was 4% (v/v). […] All concentrations are in terms of the final reaction volume (0.25 mL). The reaction mixtures were chilled on ice, and […] of 10 mM GTP was added to each reaction mixture. Samples were transferred to cuvettes held at 0° C. by an electronic temperature controller in Gilford spectrophotometers. Baselines were established at 350 nm, and polymerization initiated by a temperature jump to 26° C. The jump took about 50 sec to complete. After 20 min, turbidity readings were recorded, and the temperature controller was set to 0° C. When depolymerization was complete, turbidity readings were again recorded. […] IC50 values were obtained graphically from inhibition of polymerization by different drug concentrations. Four spectrophotometers were used for each experimental sequence, with at least two control reactions (no drug) in each set.

SF-295 = assay: NCI in vitro tumor cell screen, SF-295 CNS tumor; type: cell-based
Method: (§1) Selected 2-phenyl-4-quinolones were assayed using an in vitro, disease-oriented antitumor screen run by the National Cancer Institute (NCI) (e.g., Boyd 1989). The screen involved approximately 60 different cell lines and is a useful indicator of in vivo antitumor activity for a broad variety of tumor types (Grever et al., 1992; Monks et al., 1991). The cell lines tested included cells derived from the following solid tumor types: leukemia, non-small cell lung, colon, the central nervous system (CNS), melanoma, ovarian, renal, prostate, and breast cancers.
(§2) melonoma; SF268 and SF295, CNS tumor cell lines; DU145, prostate cancer

OVCAR-3 = assay: NCI in vitro tumor cell screen, OVCAR-3 ovarian cancer; type: cell-based; details: Homo sapiens
Method: as §1

NCI-H226 = assay: NCI in vitro tumor cell screen, NCI-H226 non-small cell lung cancer; type: cell-based; details: Homo sapiens
Method: as §1

SK-Mel-5 = assay: NCI in vitro tumor cell screen, SK-Mel-5 melanoma; type: cell-based; details: Homo sapiens
Method: as §1, §2

tubulin [2] = assay: inhibition of radiolabeled colchicine binding to tubulin (ICB); design: species or system bovine; details: evaluated only when polymerization IC50 ≤ 1.0 μM; inhibitor equimolar with [3H]colchicine, 5-fold molar excess over tubulin
Method: Studies conducted in support of the present invention indicate that one mode of action of the 2-phenyl-4-quinolone compounds, as antitumor agents, is an ability to bind to tubulin and inhibit cell mitosis. […] […].
[…]. […] […].
Electrophoretically homogeneous bovine brain tubulin was purified as described previously (Hamel, et al., 1984). Combretastatin A-4 was a generous gift of Dr. G. R. Pettit, Arizona State University. Dihydrocombretastatin A-4 was prepared as described previously (Getahun et al., 1992). […]

K-562 = assay: NCI in vitro tumor cell screen, K-562 leukemia; type: cell-based; details: Homo sapiens, K562
Method: as §1

HCT116 = assay: NCI in vitro tumor cell screen, HCT116 colon cancer; type: cell-based; details: Homo sapiens, HCT-116
Method: as §1

SF-268 = assay: NCI in vitro tumor cell screen, SF-268 CNS tumor; type: cell-based; details: Homo sapiens
Method: as §1, §2

[3] = test system: approximately 60 different cell lines; assay: NCI in vitro disease-oriented human tumor cell screen, all cell lines; type: cell-based; details: Homo sapiens
Source text: The cell lines tested included cells derived from the following solid tumor types: leukemia, non-small cell lung, colon, the central nervous system (CNS), melanoma, ovarian, renal, prostate, and breast cancers.

KM202L = assay: NCI in vitro tumor cell screen, KM20L2 colon cancer; type: cell-based; details: Homo sapiens, KM-20L2
Method: as §1

OVCAR-4 = assay: NCI in vitro tumor cell screen, OVCAR-4 ovarian cancer; type: cell-based; details: Homo sapiens
Method: as §1

RXF-393 = assay: NCI in vitro tumor cell screen, RXF-393 renal cancer; type: cell-based; details: Homo sapiens
Method: as §1

[4] = ± SD, tubulin 1.2 mg/mL, 26° C., 20 min, read-out: ITP IC50 (inhibition of tubulin polymerization)
[5] = Homo sapiens, SF-295; read-out: logGI50 (converted)
[6] = SF-268, CNS tumor, read-out: logGI50 (converted)
[7] = calculated from all cell lines tested (Table II), read-out: average logGI50 (converted)
[8] = average over cell lines, read-out: average log GI50 (converted)

COc1cccc(-c2cc(=O)c3cc(NC(=O)c4ccccc4)ccc3[nH]2)c1 [compound 33, 3'-Methoxy-6'-benzamido-2-phenyl-4-quinolone]
IC50 (tubulin [1]; [4]): 0.0013 ± 7e-05 mM

O=c1cc(-c2cccc(F)c2)[nH]c2cc3c(cc12)OCO3 [compound 13, 3'-Fluoro-6,7-methylenedioxy-2-phenyl-4-quinolone]
IC50 (tubulin [1]; [4]): 0.00053 ± 0.0001 mM
GI50 (SF-295; [5]): 141 nM
GI50 (OVCAR-3): 288 nM
GI50 (NCI-H226): 955 nM
GI50 (SK-Mel-5): 269 nM
ICB (% inhibition of colchicine binding) (tubulin [2]): 51 ± 3%
GI50 (K-562): 339 nM
GI50 (HCT116): 219 nM
GI50 (SF-268; [6]): 661 nM
GI50 [3, 7]: 339 nM

O=c1cc(-c2cccc(C(F)(F)F)c2)[nH]c2cc3c(cc12)OCO3 [compound 16, 3'-Trifluoromethyl-6,7-methylenedioxy-2-phenyl-4-quinolone]
IC50 (tubulin [1]; [4]): 0.00082 ± 0.0002 mM
ICB (% inhibition of colchicine binding) (tubulin [2]): 5 ± 7%
GI50 (KM202L): 1380 nM
GI50 [3, 7]: 2750 nM

Nc1ccc2[nH]c(-c3cccc(Cl)c3)cc(=O)c2c1 [compound 20, 3'-Chloro-6-amino-2-phenyl-4-quinolone]
GI50 (OVCAR-4): > 100000 nM
activity in tubulin polymerization assay, in words (tubulin [1]): moderately active
IC50 (tubulin [1]; [4]): 0.0061 ± 0.001 mM
GI50 (KM202L): 3160 nM
GI50 [3, 7]: 5500 nM

COc1cccc(-c2cc(=O)c3cc(N4CCCCC4)ccc3[nH]2)c1 [compound 30, 3'-Methoxy-6-piperidinyl-2-phenyl-4-quinolone]
IC50 (tubulin [1]; [4]): 0.00078 ± 0.0002 mM
ICB (% inhibition of colchicine binding) (tubulin [2]): 53 ± 6%

CN(C)c1cccc(-c2cc(=O)c3cc4c(cc3[nH]2)OCO4)c1 [compound 36]
IC50 (tubulin [1]; [4]): 0.0007 ± 3e-05 mM
ICB (% inhibition of colchicine binding) (tubulin [2]): 29 ± 7%

COc1cccc(-c2cc(=O)c3cc(N)ccc3[nH]2)c1 [compound 22, 3'-Methoxy-6-amino-2-phenyl-4-quinolone]
activity in tubulin polymerization assay, in words (tubulin [1]): moderately active
IC50 (tubulin [1]; [4]): 0.0087 ± 0.003 mM
GI50 (KM202L): 3470 nM
GI50 [3, 7]: 4570 nM

O=c1cc(-c2cccc(OC(F)(F)F)c2)[nH]c2ccc(N3CCCC3)cc12 [compound 29, 3'-Trifluoromethoxy-6-pyrrolinyl-2-phenyl-4-quinolone]
IC50 (tubulin [1]; [4]): 0.00072 ± 0.0002 mM
ICB (% inhibition of colchicine binding) (tubulin [2]): 58 ± 5%

O=c1cc(-c2ccccc2)[nH]c2cc3c(cc12)OCO3 [compound 34]
IC50 (tubulin [1]; [4]): 0.00063 ± 0.0002 mM
ICB (% inhibition of colchicine binding) (tubulin [2]): 26 ± 10%

CC(=O)Nc1ccc2[nH]c(-c3cccc(F)c3)cc(=O)c2c1 [compound 25, 3'-Fluoro-6-acetamido-2-phenyl-4-quinolone]
GI50 (SF-295; Homo sapiens, SF-295, read-out: logGI50 (converted)): 38900 nM
GI50 (SF-268; SF-268, read-out: logGI50 (converted)): 25700 nM

COc1cccc(-c2cc(=O)c3cc4c(cc3[nH]2)OCO4)c1 [compound 35]
IC50 (tubulin [1]; [4]): 0.00057 ± 0.0001 mM
ICB (% inhibition of colchicine binding) (tubulin [2]): 39 ± 8%

COc1ccc(CCc2cc(OC)c(OC)c(OC)c2)cc1O [dihydrocombretastatin A-4, reference compound]
IC50 (tubulin [1]; [4]): 0.00063 ± 3e-05 mM
ICB (% inhibition of colchicine binding) (tubulin [2]): 65 ± 4%

COc1ccc(/C=C\c2cc(OC)c(OC)c(OC)c2)cc1O [combretastatin A-4, reference compound]
ICB (% inhibition of colchicine binding) (tubulin [2]): 94 ± 2%

Nc1ccc2[nH]c(-c3cccc(C(F)(F)F)c3)cc(=O)c2c1 [compound 21, 3'-Trifluoromethyl-6-amino-2-phenyl-4-quinolone]
activity in tubulin polymerization assay, in words (tubulin [1]): inactive
IC50 (tubulin [1]; values given in mM, read-out: IC50, inhibition of tubulin polymerization): > 0.04 mM
IC50 (tubulin [1]; [4]): > 0.04 mM
GI50 (KM202L): 34700 nM
GI50 [3, 7]: 39800 nM

CNc1cccc(-c2cc(=O)c3cc4c(cc3[nH]2)OCO4)c1 [compound 11, 3'-N-Methylamino-6,7-methylenedioxy-2-phenyl-4-quinolone]
IC50 (tubulin [1]; [4]): 0.00065 ± 0.0001 mM
GI50 (SF-295; [5]): 324 nM
GI50 (OVCAR-3): 339 nM
GI50 (NCI-H226): 537 nM
GI50 (SK-Mel-5): 447 nM
ICB (% inhibition of colchicine binding) (tubulin [2]): 17 ± 11%
GI50 (K-562): 398 nM
GI50 (HCT116): 245 nM
GI50 (KM202L): 331 nM
GI50 (SF-268; [6]): 5500 nM
GI50 [3, 7]: 513 nM
GI50 (RXF-393): 363 nM

O=c1cc(-c2cccc(Cl)c2)[nH]c2cc3c(cc12)OCO3 [compound 14, 3'-Chloro-6,7-methylenedioxy-2-phenyl-4-quinolone]
GI50 (OVCAR-4): > 75900 nM
IC50 (tubulin [1]; [4]): 0.00037 ± 3e-05 mM
GI50 (SK-Mel-5): 209 nM
ICB (% inhibition of colchicine binding) (tubulin [2]): 45 ± 7%
GI50 (KM202L): 269 nM
GI50 [3, 7]: 501 nM

COc1cc([C@@H]2c3cc4c(cc3[C@H](O)[C@H]3COC(=O)[C@H]23)OCO4)cc(OC)c1OC [podophyllotoxin, reference compound]
ICB (% inhibition of colchicine binding) (tubulin [2]): 84 ± 2%

O=c1cc(-c2cccc(Br)c2)[nH]c2cc3c(cc12)OCO3 [compound 15, 3'-Bromo-6,7-methylenedioxy-2-phenyl-4-quinolone]
GI50 (OVCAR-4): > 100000 nM
IC50 (tubulin [1]; [4]): 0.00053 ± 0.0001 mM
GI50 (SF-295; [5]): 331 nM
GI50 (OVCAR-3): 4270 nM
GI50 (NCI-H226): 3800 nM
GI50 (SK-Mel-5): 4370 nM
ICB (% inhibition of colchicine binding) (tubulin [2]): 26 ± 3%
GI50 (K-562): 3470 nM
GI50 (HCT116): 3390 nM
GI50 (KM202L): 3090 nM
GI50 (SF-268; [6]): 3020 nM
GI50 [3, 8]: 3160 nM
GI50 [3, 7]: 3310 nM
GI50 (RXF-393): 2400 nM

O=c1cc(-c2cccc(O)c2)[nH]c2cc3c(cc12)OCO3 [compound 12, 3'-Hydroxy-6,7-methylenedioxy-2-phenyl-4-quinolone]
IC50 (tubulin [1]; [4]): 0.00047 ± 0.0001 mM
GI50 (SF-295; [5]): 5500 nM
GI50 (SK-Mel-5): 1480 nM
ICB (% inhibition of colchicine binding) (tubulin [2]): 26 ± 3%
GI50 (K-562): 724 nM
GI50 (HCT116): 1820 nM
GI50 (KM202L): 3310 nM
GI50 (SF-268; [6]): 2290 nM
GI50 [3, 8]: 3160 nM
GI50 [3, 7]: 3090 nM

Nc1cccc(-c2cc(=O)c3cc4c(cc3[nH]2)OCO4)c1 [compound 10, 3'-Amino-6,7-methylenedioxy-2-phenyl-4-quinolone]
GI50 (OVCAR-4): 38900 nM
IC50 (tubulin [1]; [4]): 0.00073 ± 0.0002 mM
GI50 (SF-295; [5]): 2400 nM
GI50 (NCI-H226): 2190 nM
GI50 (SK-Mel-5): 933 nM
ICB (% inhibition of colchicine binding) (tubulin [2]): 16 ± 7%
GI50 (K-562): 891 nM
GI50 (HCT116): 479 nM
GI50 (KM202L): 708 nM
GI50 (SF-268; [6]): 759 nM
GI50 [3, 7]: 1620 nM
GI50 (RXF-393): 603 nM
